Values after ≈ are worked out from the molar mass of the structure shown.
Columns and labels:
CD-1 mice = format: in vivo; details: for Mouse single IV injection: mortality: 40 mpk
Description: Procedure: The experiment was performed using the commercial Fungizone and Ambisome. Compound BA was directly used after purification without any special treatment. […] . Female CD-1 mice were (3 per group; body weight 30 g each) injected with the drugs/compounds and monitored for 24 h for death or distress signs.
Compound BA was directly used after purification without any special treatment. […] . Female CD-1 mice were (3 per group; body weight 30 g each) injected with the drugs/compounds and monitored for 24 h for death or distress signs.

Syncephalastrum sp. = assay: MIC against moulds; format: cell-based; details: 6 isolates
[1] = Liver Microsome stability (In Vitro Metabolism); format: in vitro ADME; details: for Remaining (T = NCF60 min): no cofactor 60 min
Method in brief: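 Compound at 10 uM working solution (50 mM potassium phosphate, 9% MeOH, 1% DMSO) incubated at 37 C with liver microsomes (0.625 mg/ml working) and NADPH regenerating system. Sampled at 5–60 min plus a no-cofactor 60 min control. Reactions quenched with cold ACN containing internal standards; remaining compound measured by LCMS.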

Coccidioides immitis = assay: microbe, parasite or virus in culture; format: cell-based
Cryptococcus gattii = assay: MIC against yeasts; format: cell-based; details: 10 isolates
Mucor circinelloides = assay: MIC against moulds; format: cell-based; details: 6 isolates
Candida albicans SN250 = assay: Mouse model of invasive candidiasis (kidney CFU); details: for Mouse candidiasis model: 5 mpk
Lomentospora prolificans = assay: MIC against rare moulds resistant to AmB; format: cell-based; details: 6 isolates
A. niger = assay: MIC against moulds; format: cell-based; details: 6 isolates
Candida krusei = assay: MIC against yeasts; format: cell-based; details: 2 isolates
KIM1, LCN2, TIMP1, SPP1 = assay: Biomarkers of renal injury by RTPCR after IV injection; design: species or system mice; details: mouse, in vivo
C. albicans SN250 = assay: MIC; format: cell-based, Candida albicans
[2] = In vivo mouse pharmacokinetics, IV; design: species or system CD-1 mice
Description: The experiment was performed using the compounds synthesized in lab and purified by preparative HPLC (>91%). All the compounds were dissolved in D5W (5% dextrose in water) at for IV injection. Female CD-1 mice were (3 per group; body weight approx. 30 g each) injected with the compounds (as per planned dosage) and the blood samples were collected at different time points and the compound content was analysed using the following procedure.
An aliquot of […], IS solution (100 ng/mL Labetalol & 100 ng/mL Tolbutamide in ACN), the mixture was vortex-mixed well and centrifuged at 3900 rpm for 10 min, 4[…]. An aliquot of 90 μL supernatant was transferred to sample plate and mixed with 60 μL water, then the plate was shaken at 800 rpm for 10 min. 15.0 μL supernatant was injected for LC-MS/MS analysis.

A. fumigatus 1163 = assay: MIC; format: cell-based
C. tropicalis = assay: MIC; format: cell-based
C. glabrata = assay: MIC; format: cell-based
C. krusei = assay: MIC; format: cell-based

C[C@@H]1[C@H](O)[C@@H](C)/C=C/C=C/C=C/C=C/C=C/C=C/C=C/[C@H](OC2O[C@H](C)[C@@H](O)[C@H](N)[C@@H]2O)C[C@@H]2O[C@](O)(C[C@@H](O)C[C@@H](O)[C@H](O)CC[C@@H](O)C[C@@H](O)CC(=O)O[C@H]1C)C[C@H](O)[C@H]2C(=O)O (stereo partly shown) [AmB, Amphotericin B]
Mouse single IV injection: mortality (CD-1 mice): 0/3 | MIC (Syncephalastrum sp.; Syncephalastrum): 0.06 µM (≈ 0.0554 µg/mL) | CLint scaled at 1 µM ([1]; Dog liver microsomes): < 14 mL/min/kg | Remaining (T = 60 min) ([1]; Dog liver microsomes): 106% | half-life at 1 µM ([1]; Dog liver microsomes): > 2.42 h | microsomal CLint at 1 µM ([1]; Dog liver microsomes): < 9.6 µL/min/mg | Remaining (T = NCF60 min) ([1]; Dog liver microsomes): 94.7% | CLint scaled at 1 µM ([1]; Human liver microsomes): < 8.6 mL/min/kg | Remaining (T = 60 min) ([1]; Human liver microsomes): 100% | half-life at 1 µM ([1]; Human liver microsomes): > 2.42 h | microsomal CLint at 1 µM ([1]; Human liver microsomes): < 9.6 µL/min/mg | Remaining (T = NCF60 min) ([1]; Human liver microsomes): 104% | CLint scaled at 1 µM ([1]; Monkey liver microsomes): < 13 mL/min/kg | Remaining (T = 60 min) ([1]; Monkey liver microsomes): 142% | half-life at 1 µM ([1]; Monkey liver microsomes): > 2.42 h | microsomal CLint at 1 µM ([1]; Monkey liver microsomes): < 9.6 µL/min/mg | Remaining (T = NCF60 min) ([1]; Monkey liver microsomes): 105% | CLint scaled at 1 µM ([1]; Mouse liver microsomes): < 38 mL/min/kg | Remaining (T = 60 min) ([1]; Mouse liver microsomes): 106% | half-life at 1 µM ([1]; Mouse liver microsomes): > 2.42 h | microsomal CLint at 1 µM ([1]; Mouse liver microsomes): < 9.6 µL/min/mg | Remaining (T = NCF60 min) ([1]; Mouse liver microsomes): 93.1% | CLint scaled at 1 µM ([1]; Rat liver microsomes): < 17 mL/min/kg | Remaining (T = 60 min) ([1]; Rat liver microsomes): 121% | half-life at 1 µM ([1]; Rat liver microsomes): > 2.42 h | microsomal CLint at 1 µM ([1]; Rat liver microsomes): < 9.6 µL/min/mg | Remaining (T = NCF60 min) ([1]; Rat liver microsomes): 111% | MIC (Coccidioides immitis; Coccidioides immitis, read-out: MIC Coccidioides immitis): 0.125 µM (≈ 0.116 µg/mL) | MIC (Cryptococcus gattii; Cryptococcus gattii): 0.75 µM (≈ 0.693 µg/mL) | MIC (Mucor circinelloides; Mucor circinelloides): 0.125 µM (≈ 0.116 µg/mL) | Mouse candidiasis model (Candida albicans SN250): 5.2 Log (CFU/mL) | MIC (Lomentospora prolificans; Lomentospora prolificans): > 16 µM | MIC (A. niger; Aspergillus niger): 0.21 µM (≈ 0.194 µg/mL) | MIC (Candida krusei; Pichia kudriavzevii): 1 µM (≈ 0.924 µg/mL) | Renal toxicity biomarkers KIM1, LCN2, TIMP1, SPP1 (KIM1, LCN2, TIMP1, SPP1): elevated

CC1C=CC=CC=CC=CC=CC=CC=CC(OC2OC(C)C(O)C(N)C2O)CC2OC(O)(CC(O)CC(O)C(O)CCC(O)CC(O)CC(=O)OC(C)C(C)C1O)CC(O)C2C(=O)NCCO (stereo not shown) [Compound BA]
Number of Mice Alive (CD-1 mice; 40 mg/kg IV, 24 h): 3/3 | Number of Mice Distress-Fee (CD-1 mice; 40 mg/kg IV, 24 h): 3/3 | Mouse single IV injection: mortality (CD-1 mice): 0/4 | Tolerability in mice (CD-1 mice; IV in D5W): Well-Tolerated | MIC (Syncephalastrum sp.): 1 µM (≈ 0.967 µg/mL) | CL ([1]; Dog liver microsomes): <9.6 µL/min/mg | Remaining (T = 60 min) ([1]; Dog liver microsomes): 111% | T1/2 ([1]; Dog liver microsomes): >2.42 h | CL ([1]; Human liver microsomes): <9.6 µL/min/mg | Remaining (T = 60 min) ([1]; Human liver microsomes): 99.9% | T1/2 ([1]; Human liver microsomes): >2.42 h | CL ([1]; Monkey liver microsomes): <9.6 µL/min/mg | Remaining (T = 60 min) ([1]; Monkey liver microsomes): 108% | T1/2 ([1]; Monkey liver microsomes): >2.42 h | CL ([1]; Mouse liver microsomes): <9.6 µL/min/mg | Remaining (T = 60 min) ([1]; Mouse liver microsomes): 97.7% | T1/2 ([1]; Mouse liver microsomes): >2.42 h | CL ([1]; Rat liver microsomes): <9.6 µL/min/mg | Remaining (T = 60 min) ([1]; Rat liver microsomes): 115% | T1/2 ([1]; Rat liver microsomes): >2.42 h | MIC Coccidioides immitis (Coccidioides immitis): 0.29 µM (≈ 0.28 µg/mL) | MIC (Cryptococcus gattii): 2 µM (≈ 1.93 µg/mL) | MIC C. albicans SN250 (C. albicans SN250): 0.25 µM (≈ 0.242 µg/mL) | MIC (Mucor circinelloides): 1 µM (≈ 0.967 µg/mL) | In vivo PK AUC0-inf ([2]; 1 mg/kg IV): 7488] ng*hr/mL | In vivo PK Cl ([2]; 1 mg/kg IV): 2.24 mL/min/kg | In vivo PK T1/2 ([2]; 1 mg/kg IV): 6.87 h | In vivo PK AUC0-inf ([2]; 5 mg/kg IV): 26694 ng·h/mL | In vivo PK Cl ([2]; 5 mg/kg IV): 3.13 mL/min/kg | In vivo PK T1/2 ([2]; 5 mg/kg IV): 8.00 h | Mouse candidiasis model (Candida albicans SN250): 6.3 Log (CFU/mL) | Efficacy in mouse model of invasive candidiasis (Candida albicans SN250; in vivo): Highly Efficacious | MIC (Lomentospora prolificans): >16 µM | MIC (A. niger): 0.58 µM (≈ 0.561 µg/mL) | MIC (Candida krusei): 4 µM (≈ 3.87 µg/mL)

CC1C=CC=CC=CC=CC=CC=CC=CC(OC2OC(C)C(O)C(N)C2O)CC2OC(O)(CC(O)CC(O)C(O)CCC(O)CC(O)CC(=O)OC(C)C(C)C1O)CC(O)C2C(=O)NCCF (stereo not shown) [Compound BM]
MIC A. fumigatus 1163 (A. fumigatus 1163): 1000 µM (≈ 969 µg/mL) | MIC C. tropicalis (C. tropicalis): 500 µM (≈ 485 µg/mL) | MIC C. glabrata (C. glabrata): 250 µM (≈ 242 µg/mL) | MIC (Syncephalastrum sp.): 1 µM (≈ 0.969 µg/mL) | MIC Coccidioides immitis (Coccidioides immitis): 0.23 µM (≈ 0.223 µg/mL) | MIC (Cryptococcus gattii): 2 µM (≈ 1.94 µg/mL) | MIC C. krusei (C. krusei): 1000 µM (≈ 969 µg/mL) | MIC (Mucor circinelloides): 1 µM (≈ 0.969 µg/mL) | Mouse candidiasis model (Candida albicans SN250): 5.7 Log (CFU/mL) | MIC (Lomentospora prolificans): >16 µM | MIC (A. niger): 3 µM (≈ 2.91 µg/mL) | MIC (Candida krusei): 2 µM (≈ 1.94 µg/mL)
